pIC50: −log10 of the molar value.
Test system: 349418-098-R-PDC complex spheroid viability
Assay: Anticancer human tumor 349418-098-R-PDC patient-derived lung adenocarcinoma cell line growth inhibition
Settings: for pIC50: curve of first compound; for viability, T/C: stronger effect = lower value; active = viability on the fitted dose curve at most 10% of control; inactive = the rest
How it was run: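 Drug combinations with the LSD1 inhibitor iadademstat tested on tumor cells co-cultured as spheroids with endothelial cells and mesenchymal stem cells. Concentrations descended in half-log increments from clinical Cmax or 10 microM.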

[1] = second compound 0.1 µM, first compound 0.00949 µM
[2] = second compound 0.1 µM, first compound 0.03 µM
[3] = second compound 0.1 µM, first compound 0.0949 µM
[4] = second compound 0.1 µM, first compound 0.3 µM
[5] = second compound 0.316 µM, first compound 0.00949 µM
[6] = second compound 0.316 µM, first compound 0.03 µM
[7] = second compound 0.316 µM, first compound 0.0949 µM
[8] = second compound 0.316 µM, first compound 0.3 µM
[9] = second compound 1 µM, first compound 0.00949 µM
[10] = second compound 1 µM, first compound 0.03 µM
[11] = second compound 1 µM, first compound 0.0949 µM
[12] = second compound 1 µM, first compound 0.3 µM
[13] = second compound 3.16 µM, first compound 0.00949 µM
[14] = second compound 3.16 µM, first compound 0.03 µM
[15] = second compound 3.16 µM, first compound 0.0949 µM
[16] = second compound 3.16 µM, first compound 0.3 µM
[17] = second compound 10 µM, first compound 0.00949 µM
[18] = second compound 10 µM, first compound 0.03 µM
[19] = second compound 10 µM, first compound 0.0949 µM
[20] = second compound 10 µM, first compound 0.3 µM
[21] = second compound 0.1 µM, first compound 0.00316 µM
[22] = second compound 0.1 µM, first compound 0.01 µM
[23] = second compound 0.1 µM, first compound 0.0316 µM
[24] = second compound 0.1 µM, first compound 0.1 µM
[25] = second compound 0.1 µM, first compound 0.316 µM
[26] = second compound 0.1 µM, first compound 1 µM
[27] = second compound 0.316 µM, first compound 0.00316 µM
[28] = second compound 0.316 µM, first compound 0.01 µM
[29] = second compound 0.316 µM, first compound 0.0316 µM
[30] = second compound 0.316 µM, first compound 0.1 µM
[31] = second compound 0.316 µM, first compound 0.316 µM
[32] = second compound 0.316 µM, first compound 1 µM
[33] = second compound 1 µM, first compound 0.00316 µM
[34] = second compound 1 µM, first compound 0.01 µM
[35] = second compound 1 µM, first compound 0.0316 µM
[36] = second compound 1 µM, first compound 0.1 µM
[37] = second compound 1 µM, first compound 0.316 µM
[38] = second compound 1 µM, first compound 1 µM
[39] = second compound 3.16 µM, first compound 0.00316 µM
[40] = second compound 3.16 µM, first compound 0.01 µM
[41] = second compound 3.16 µM, first compound 0.0316 µM
[42] = second compound 3.16 µM, first compound 0.1 µM
[43] = second compound 3.16 µM, first compound 0.316 µM
[44] = second compound 3.16 µM, first compound 1 µM
[45] = second compound 10 µM, first compound 0.00316 µM
[46] = second compound 10 µM, first compound 0.01 µM
[47] = second compound 10 µM, first compound 0.0316 µM
[48] = second compound 10 µM, first compound 0.1 µM
[49] = second compound 10 µM, first compound 0.316 µM
[50] = second compound 10 µM, first compound 1 µM
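Also: spheroids exposed to agents for seven days before readout.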
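For viability, T/C in this document: 100% = DMSO vehicle control wells.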

CCc1c2c(nc3ccc(O)cc13)-c1cc3c(c(=O)n1C2)COC(=O)[C@]3(O)CC + NC1CCC(NC2CC2c2ccccc2)CC1
active: viability, T/C (second compound 0.1 µM, first compound 0.000949 µM) 4.09% | viability, T/C (second compound 0.1 µM, first compound 0.003 µM) 2.43% | viability, T/C [1] 2.12% | viability, T/C [2] 1.2% | viability, T/C [3] 1.37% | viability, T/C [4] 1.52% | viability, T/C (second compound 0.316 µM, first compound 0.000949 µM) 3.85% | viability, T/C (second compound 0.316 µM, first compound 0.003 µM) 2.61% | viability, T/C [5] 2.07% | viability, T/C [6] 1.29% | viability, T/C [7] 1.05% | viability, T/C [8] 1.44% | viability, T/C (second compound 1 µM, first compound 0.000949 µM) 4.08% | viability, T/C (second compound 1 µM, first compound 0.003 µM) 2.65% | viability, T/C [9] 1.89% | viability, T/C [10] 1.41% | viability, T/C [11] 1.14% | viability, T/C [12] 1.59% | viability, T/C (second compound 3.16 µM, first compound 0.000949 µM) 3.68% | viability, T/C (second compound 3.16 µM, first compound 0.003 µM) 2.54% | viability, T/C [13] 1.99% | viability, T/C [14] 1.37% | viability, T/C [15] 1.05% | viability, T/C [16] 1.61% | viability, T/C (second compound 10 µM, first compound 0.000949 µM) 3.85% | viability, T/C (second compound 10 µM, first compound 0.003 µM) 2.63% | viability, T/C [17] 2.13% | viability, T/C [18] 1.59% | viability, T/C [19] 1.21% | viability, T/C [20] 1.47%
> 9.02: pIC50 (second compound 0.1 µM) | pIC50 (second compound 0.316 µM) | pIC50 (second compound 1 µM) | pIC50 (second compound 3.16 µM) | pIC50 (second compound 10 µM)

O=C(C=Cn1cnc(-c2cc(C(F)(F)F)cc(C(F)(F)F)c2)n1)NNc1cnccn1 + NC1CCC(NC2CC2c2ccccc2)CC1
> 8.50: pIC50 (second compound 0.1 µM) | pIC50 (second compound 0.316 µM) | pIC50 (second compound 1 µM) | pIC50 (second compound 3.16 µM) | pIC50 (second compound 10 µM)
active: viability, T/C [22] 8.25% | viability, T/C [23] 7.06% | viability, T/C [24] 4.2% | viability, T/C [25] 3.1% | viability, T/C [26] 2.53% | viability, T/C [28] 8.83% | viability, T/C [29] 6.85% | viability, T/C [30] 4.29% | viability, T/C [31] 3.65% | viability, T/C [32] 2.34% | viability, T/C [34] 8.34% | viability, T/C [35] 6.23% | viability, T/C [36] 4.78% | viability, T/C [37] 2.92% | viability, T/C [38] 2.31% | viability, T/C [40] 8.38% | viability, T/C [41] 7.11% | viability, T/C [42] 4.9% | viability, T/C [43] 3.12% | viability, T/C [44] 2.6% | viability, T/C [46] 9.32% | viability, T/C [47] 6.65% | viability, T/C [48] 4.32% | viability, T/C [49] 3.64% | viability, T/C [50] 2.6%
inactive: viability, T/C [21] 19.9% | viability, T/C [27] 16.7% | viability, T/C [33] 22.8% | viability, T/C [39] 21% | viability, T/C [45] 17.9%

Nc1ncn(C2CC(O)C(CO)O2)c(=O)n1 (stereo not given) + NC1CCC(NC2CC2c2ccccc2)CC1
7.61: pIC50 (second compound 0.1 µM)
7.71: pIC50 (second compound 3.16 µM)
7.95: pIC50 (second compound 10 µM)
inactive: viability, T/C [21] 78% | viability, T/C [22] 75.6% | viability, T/C [23] 43% | viability, T/C [24] 28.6% | viability, T/C [25] 26.1% | viability, T/C [26] 24.2% | viability, T/C [27] 72.8% | viability, T/C [28] 75.7% | viability, T/C [29] 55.2% | viability, T/C [30] 36.7% | viability, T/C [31] 25% | viability, T/C [32] 22.7% | viability, T/C [33] 89.5% | viability, T/C [34] 73.5% | viability, T/C [35] 46% | viability, T/C [36] 31.4% | viability, T/C [37] 27.8% | viability, T/C [38] 23.3% | viability, T/C [39] 83.2% | viability, T/C [40] 56.7% | viability, T/C [41] 45.3% | viability, T/C [42] 34% | viability, T/C [43] 23.7% | viability, T/C [44] 21.9% | viability, T/C [45] 80.9% | viability, T/C [46] 50.5% | viability, T/C [47] 36% | viability, T/C [48] 27.5% | viability, T/C [49] 23.3% | viability, T/C [50] 20.4%
7.56: pIC50 (second compound 1 µM)
7.33: pIC50 (second compound 0.316 µM)

Nc1ccccc1NC(=O)c1ccc(CNC(=O)OCc2cccnc2)cc1 + NC1CC1c1ccc(-c2cccc(O)c2)cc1
7.08: pIC50 (second compound 0.1 µM)
6.84: pIC50 (second compound 3.16 µM)
6.99: pIC50 (second compound 0.316 µM)
inactive: viability, T/C [1] 94% | viability, T/C [2] 68.2% | viability, T/C [3] 53.2% | viability, T/C [4] 20.4% | viability, T/C [5] 102% | viability, T/C [6] 84.8% | viability, T/C [7] 53.8% | viability, T/C [8] 17.8% | viability, T/C [9] 106% | viability, T/C [10] 83.1% | viability, T/C [11] 61.2% | viability, T/C [12] 22.6% | viability, T/C [13] 102% | viability, T/C [14] 84.4% | viability, T/C [15] 67.9% | viability, T/C [16] 23.9% | viability, T/C [17] 93.3% | viability, T/C [18] 81.7% | viability, T/C [19] 64.3% | viability, T/C [20] 21.7%
6.92: pIC50 (second compound 1 µM)
6.87: pIC50 (second compound 10 µM)
active: viability, T/C (second compound 0.1 µM, first compound 0.949 µM) 6.54% | viability, T/C (second compound 0.1 µM, first compound 3 µM) 3.26% | viability, T/C (second compound 0.316 µM, first compound 0.949 µM) 6.05% | viability, T/C (second compound 0.316 µM, first compound 3 µM) 3.43% | viability, T/C (second compound 1 µM, first compound 0.949 µM) 6.06% | viability, T/C (second compound 1 µM, first compound 3 µM) 3.46% | viability, T/C (second compound 3.16 µM, first compound 0.949 µM) 6.45% | viability, T/C (second compound 3.16 µM, first compound 3 µM) 2.77% | viability, T/C (second compound 10 µM, first compound 0.949 µM) 5.86% | viability, T/C (second compound 10 µM, first compound 3 µM) 2.77%

— PubChem BioAssay AID1918936 (Molecular Pharmacology Branch, DTP, NCI, 2023)
